Values quoted from earlier work as cited in patent US20160158308A1 (priority 2013, published 2016).
Read-outs that look alike come from different tables or passages of the source.

Legend:
[1] = tested on: Mycobacterium tuberculosis; conditions: NAC at 10 millimolar
[2] = rat liver, CO-60, water control = 0% removal

| SMILES | M. tuberculosis CFU/ml [1] | removal of the toxin [2] [%] | removal of the toxin ([2]; listed as Intravenous glutathione) [%] |
| --- | --- | --- | --- |
| CC(=O)N[C@@H](CS)C(=O)O [NAC, N-acetyl cysteine] | 8,000 CFU/ml |  |  |
| N[C@@H](CCC(=O)N[C@@H](CS)C(=O)NCC(=O)O)C(=O)O [Plain glutathione, glutathione] |  | 0 | 64 |
